“Also recorded” adds a separate entry of the source. Where two headings read alike, the source gives them in different places.
Experiments:
[1] = tested on: dogs with osteosarcoma; details: cited from earlier work
[2] = blood samples stored frozen at −80°C for 90 days and subsequently thawed; cited from earlier work
[3] = tested on: dogs with experimental renal allografts; details: cited from earlier work
[4] = tested on: canine osteosarcoma and malignant melanoma cell lines; details: immortalized canine cell lines; cited from earlier work
[5] = tested on: mTOR pathway; details: IM 0.01 to 0.08 mg/kg, peripheral blood mononuclear cells and tumor biopsy specimens, each dose cohort; cited from earlier work
[6] = Pharmacokinetics of rapamycin in blood after a single oral dose; assay type: in vivo, dogs; details: experiment 1: 0.1 mg/kg PO once
[7] = tested on: healthy dogs; assay: Monitoring of adverse effects in healthy dogs during the study; assay type: in vivo; details: 0.1 mg/kg PO once (experiment 1) and once daily for 5 days (experiment 2), vomiting between 3 and 5 hours after administration on day 4 of experiment 2
[8] = Pharmacokinetics of rapamycin in blood after oral dosing once daily for 5 days; assay type: in vivo, dogs
[9] = compartmental NME analysis, 5 dogs
[10] = experiment 2, day 5 of 0.1 mg/kg PO once daily, compartmental NME analysis
[11] = experiment 2: 0.1 mg/kg PO once daily for 5 days, compartmental NME analysis, value before the change on day 5, mean for 4 dogs
[12] = experiment 2: 0.1 mg/kg PO once daily for 5 days, whole blood, mean of n = 4, SD

SMILES: CO[C@H]1C[C@@H]2CC[C@@H](C)[C@@](O)(O2)C(=O)C(=O)N2CCCC[C@H]2C(=O)O[C@H]([C@H](C)C[C@@H]2CC[C@@H](O)[C@H](OC)C2)CC(=O)[C@H](C)/C=C(\C)[C@@H](O)[C@@H](OC)C(=O)[C@H](C)C[C@H](C)/C=C/C=C/C=C/1C [rapamycin, Rapamycin]
- maximally tolerated dose ([1]; IM injection, doses ranging from 0.01 to 0.08 mg/kg): a maximally tolerated dose was not achieved
- injection site reaction ([1]; dog, in vivo): sterile abscesses at the injection site
- rapamycin concentration in stored blood samples (stability) [2]: not substantially affected
- prevention of renal allograft rejection ([3]; 0.05 mg/kg, IV): did not provide sufficient immunosuppression to prevent rejection of the renal allograft
- prevention of renal allograft rejection ([3]; 0.1 mg/kg, IM q 48 h or twice weekly, in combination with cyclosporine and antilymphocyte serum): not sufficient to prevent renal allograft rejection
- viable tumor cells after exposure to rapamycin [4]: significant, dose-dependent decrease in viable tumor cells
- modulation of the mTOR pathway [5]: modulation of the mTOR pathway was detected
- V1/f, volume of the central compartment after oral administration, mean estimate [6, 9]: 6.74 L/kg
- V2/f, volume of the peripheral compartment after oral administration, mean estimate [6, 9]: 18.1 L/kg
- ka, absorption rate constant, mean estimate [6, 9]: 0.358 h⁻¹
- Cmax (mean ± SD) ([6]; whole blood, mean of n = 5, SD): 8.39 ± 1.73 ng/mL
- Tmax (mean ± SD) ([6]; whole blood, mean of n = 5, SD): 3.3 ± 2.5 h
- concentration 48 hours after drug administration (mean ± SD) ([6]; whole blood, mean of n = 5, SD): 1.38 ± 0.45 ng/mL
- t1/2, terminal half-life (mean ± SD) ([6]; whole blood, noncompartmental, mean of n = 5, SD): 38.7 ± 12.7 h
- adverse effects observed [7]: None of the dogs had a substantial change in energy level, appetite, water intake, urination, or defecation; also recorded: One dog vomited once; also recorded: No other adverse effects were observed
- mean V1/f on the last day (day 5) of administration [8, 10]: 16.8 L/kg
- mean ka on the last day (day 5) of administration [8, 10]: 2.17 h⁻¹
- V2/f, volume of the peripheral compartment after oral administration, mean estimate ([8]; experiment 2: 0.1 mg/kg PO once daily for 5 days, compartmental NME analysis, mean for 4 dogs): 22.1 L/kg
- V1/f, volume of the central compartment after oral administration, mean estimate [8, 11]: 4.53 L/kg
- ka, absorption rate constant, mean estimate [8, 11]: 0.294 h⁻¹
- Tmax (mean ± SD) ([8]; experiment 2: 0.1 mg/kg PO once daily for 5 days, mean of n = 4, SD): 4.5 ± 1.0 h
- Cmax (mean ± SD) [8, 12]: 5.49 ± 1.99 ng/mL
- concentration 48 hours after drug administration (mean ± SD) [8, 12]: 1.70 ± 0.40 ng/mL
- Parameter characterizing the change in ka on the last day (day 5) of rapamycin administration in experiment 2 ([8]; βOCC2 of the NME model, θμD5 = θμD1−4e^βOCC2, P = 0.002): 2.0
- Parameter characterizing the change in V1/f on the last day (day 5) of rapamycin administration in experiment 2 ([8]; βOCC2 of the NME model, P = 0.002): 1.31

From paper PMC5642271 (American journal of veterinary research, 2016)
